# Results published in patent US8623857B2, “N-phenyl imidazole carboxamide inhibitors of 3-phosphoinositide-dependent protein kinase-1” (Merck Sharp & Dohme Corp., priority 2010, dated 2014).
# Molecular target: T1, recombinant human PDK1 (Homo sapiens, UniProt O15530)
# T1 construct: containing amino acids 51-556 of the human PDK1 enzyme; made in house; host or cells: Sf9 insect cells
# T1 sequence (O15530 51-556): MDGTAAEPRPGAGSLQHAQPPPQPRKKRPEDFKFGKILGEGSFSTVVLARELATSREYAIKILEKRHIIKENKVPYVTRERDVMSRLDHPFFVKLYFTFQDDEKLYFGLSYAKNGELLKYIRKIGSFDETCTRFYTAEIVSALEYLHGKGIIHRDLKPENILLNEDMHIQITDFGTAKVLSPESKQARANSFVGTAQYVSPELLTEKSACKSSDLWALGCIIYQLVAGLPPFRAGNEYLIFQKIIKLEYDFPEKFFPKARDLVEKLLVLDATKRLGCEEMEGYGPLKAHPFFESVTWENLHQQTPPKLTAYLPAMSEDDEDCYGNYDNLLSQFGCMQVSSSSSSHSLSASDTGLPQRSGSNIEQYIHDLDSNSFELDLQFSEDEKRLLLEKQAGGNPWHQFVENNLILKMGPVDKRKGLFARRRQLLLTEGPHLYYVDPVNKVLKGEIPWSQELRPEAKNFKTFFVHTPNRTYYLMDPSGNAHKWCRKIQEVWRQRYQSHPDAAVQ
# Experiment: PDK1 IMAP fluorescence polarization assay (inhibition of peptide substrate phosphorylation)
# Assay type: biochemical
# Conditions: Table 6; 10 nM PDK1 enzyme, 100 nM peptide substrate, 100 nM PIFtide, 2.5 uM ATP, 1.5 hours
row,Compound,IC50 [nM]
1,"CN(C)CCOc1ccccc1NC(=O)c1nc(-c2c[nH]c3ccccc23)c[nH]1 [Compound 17, N-[2-[2-(dimethylamino)ethoxy]phenyl]-4-(1H-indol-3-yl)-1H-imidazole-2-carboxamide]",251 to 1000
2,"N[C@@H]1CCCN(c2c(F)cccc2NC(=O)c2nc(C3=CCOCC3)c[nH]2)C1 [Compound 22, N-[2-(3(R)-amino-1-piperidinyl)-3-fluorophenyl]-4-(3,6-dihydro-2h-pyran-4-yl)-1H-imidazole-2-carboxamide]",251 to 1000
3,"N[C@@H]1CCCN(c2c(F)cccc2NC(=O)c2nc(-c3ccnc(O)c3)c[nH]2)C1 [Compound 25, N-[2-(3(R)-amino-1-piperidinyl)-3-fluorophenyl]-4-(2-hydroxy-4-pyridinyl)-1H-imidazole-2-carboxamide]",1000 to 5000
4,"NCC1CCN(c2c(F)cccc2NC(=O)c2nc(-c3cccc(Cl)c3)c[nH]2)CC1 [Compound 34, N-[2-[4-(aminomethyl)-1-piperidinyl]-3-fluorophenyl]-4-(3-chlorophenyl)-1H-imidazole-2-carboxamide]",51 to 250
5,"CN(C)c1cc(-c2c[nH]c(C(=O)Nc3cccc(F)c3N3CCC(CN)CC3)n2)ccn1 [Compound 36, N-[2-[4-(aminomethyl)-1-piperidinyl]-3-fluorophenyl]-4-[2-(dimethylamino)-4-pyridinyl]-1H-imidazole-2-carboxamide]",251 to 1000
6,"Cc1ccc(C)c(-c2c[nH]c(C(=O)Nc3cccc(F)c3N3CCC(CN)CC3)n2)c1 [Compound 37, N-[2-[4-(aminomethyl)-1-piperidinyl]-3-fluorophenyl]-4-(2,5-dimethylphenyl)-1H-imidazole-2-carboxamide]",1000 to 5000
7,"N[C@@H]1CCCN(c2c(F)cccc2NC(=O)c2nc(-c3ccc(F)cc3F)c[nH]2)C1 [Compound 38, N-[2-(3(R)-amino-1-piperidinyl)-3-fluorophenyl]-4-(2,4-difluorophenyl)-1H-imidazole-2-carboxamide]",251 to 1000
8,"N[C@@H]1CCCN(c2c(F)cccc2NC(=O)c2nc(-c3ccnc(-n4cccn4)c3)c[nH]2)C1 [Compound 39, N-[2-(3(R)-amino-1-piperidinyl)-3-fluorophenyl]-4-[2-(1H-pyrazol-1-yl)-4-pyridinyl]-1H-imidazole-2-carboxamide]",251 to 1000
9,"CN(C)CC1CCN(c2ccccc2NC(=O)c2nc(-c3ccnc(N)c3)c[nH]2)CC1 [Compound 40, 4-(2-amino-4-pyridinyl)-N-[2-[4-[(dimethylamino)methyl]-1-piperidinyl]phenyl]-1H-imidazole-2-carboxamide]",251 to 1000
10,"NCC1CCN(c2c(F)cccc2NC(=O)c2nc(-c3cccc(CCO)c3)c[nH]2)CC1 [Compound 41, N-[2-[4-(aminomethyl)-1-piperidinyl]-3-fluorophenyl]-4-[3-(2-hydroxyethyl)phenyl]-1H-imidazole-2-carboxamide]",51 to 250
11,"NCC1CCN(c2c(F)cccc2NC(=O)c2nc(-c3ccnc(NC4CC4)c3)c[nH]2)CC1 [Compound 42, N-[2-[4-(aminomethyl)-1-piperidinyl]-3-fluorophenyl]-4-[2-(cyclopropylamino)-4-pyridinyl]-1H-imidazole-2-carboxamide]",51 to 250
12,"Cc1cc(-c2c[nH]c(C(=O)Nc3cccc(F)c3N3CCC4CCNC4C3)n2)ccn1 (stereo not shown) [Compound 43, N-[3-fluoro-2-(octahydro-6h-pyrrolo[2,3-c]pyridin-6-yl)phenyl]-4-(2-methyl-4-pyridinyl)-1H-imidazole-2-carboxamide]",51 to 250
13,"N#Cc1cccc(-c2c[nH]c(C(=O)Nc3cccc(F)c3N3CCC(CN)CC3)n2)n1 [Compound 44, N-[2-[4-(aminomethyl)-1-piperidinyl]-3-fluorophenyl]-4-(6-cyano-2-pyridinyl)-1H-imidazole-2-carboxamide]",251 to 1000
14,"CC(=O)c1ccc(-c2c[nH]c(C(=O)Nc3cccc(F)c3N3CCC(CN)CC3)n2)s1 [Compound 45, 4-(5-acetyl-2-thienyl)-N-[2-[4-(aminomethyl)-1-piperidinyl]-3-fluorophenyl]-1H-imidazole-2-carboxamide]",1000 to 5000
15,"Cc1cc(-c2c[nH]c(C(=O)Nc3cccc(F)c3N3CCC4(CCCNC4)CC3)n2)ccn1 [Compound 46, N-[2-(2,9-diazaspiro[5,5]undec-9-yl)-3-fluorophenyl]-4-(2-methyl-4-pyridinyl)-1H-imidazole-2-carboxamide]",51 to 250

# The remaining lines, values ahead:
row,IC50 [nM],Compound
1,1 to 50,"Cc1cc(-c2c[nH]c(C(=O)Nc3cccc(F)c3N3CCC(CN)CC3)n2)ccn1 [Compound 18, N-[2-[4-(aminomethyl)-1-piperidinyl]-3-fluorophenyl]-4-(2-methyl-4-pyridinyl)-1H-imidazole-2-carboxamide]"
2,51 to 250,"N[C@@H]1CCCN(c2c(F)cccc2NC(=O)c2nc(-c3ccnc(C(F)(F)F)c3)c[nH]2)C1 [Compound 19, N-[2-(3(R)-amino-1-piperidinyl)-3-fluorophenyl]-4-[2-(trifluoromethyl)-4-pyridinyl]-1H-imidazole-2-carboxamide]"
3,1 to 50,"Nc1cc(-c2c[nH]c(C(=O)Nc3cccc(F)c3N3CCC[C@@H](N)C3)n2)ccn1 [Compound 20, N-[2-(−3(R)-amino-1-piperidinyl)-3-fluorophenyl]-4-(2-amino-4-pyridinyl)-1H-imidazole-2-carboxamide]"
4,51 to 250,"COc1cc(-c2c[nH]c(C(=O)Nc3cccc(F)c3N3CCC[C@@H](N)C3)n2)ccn1 [Compound 21, N-[2-(3(R)-amino-1-piperidinyl)-3-fluorophenyl]-4-(2-methoxy-4-pyridinyl)-1H-imidazole-2-carboxamide]"
5,51 to 250,"N[C@@H]1CCCN(c2c(F)cccc2NC(=O)c2nc(-c3ccnc(C4CC4)c3)c[nH]2)C1 [Compound 23, N-[2-(3(R)-amino-1-piperidinyl)-3-fluorophenyl]-4-(2-cyclopropyl-4-pyridinyl)-1H-imidazole-2-carboxamide]"
6,1 to 50,"Cc1cc(-c2c[nH]c(C(=O)Nc3cccc(F)c3N3CCC[C@@H](N)C3)n2)cc(N)n1 [Compound 24, 4-(2-amino-6-methyl-4-pyridinyl)-N-[2-(3(R)-amino-1-piperidinyl)-3-fluorophenyl]-1H-imidazole-2-carboxamide]"
7,1 to 50,"N[C@@H]1CCCN(c2c(F)cccc2NC(=O)c2nc(-c3ccnc(CO)c3)c[nH]2)C1 [Compound 26, N-[2-(3(R)-amino-1-piperidinyl)-3-fluorophenyl]-4-[2-(hydroxymethyl)-4-pyridinyl]-1H-imidazole-2-carboxamide]"
8,1 to 50,"NCC1CCN(c2c(F)cccc2NC(=O)c2nc(-c3ccnc(N)c3)c[nH]2)CC1 [Compound 27, N-[2-[4-(aminomethyl)-1-piperidinyl]-3-fluorophenyl]-4-(2-amino-4-pyridinyl)-1H-imidazole-2-carboxamide]"
9,51 to 250,"NCC1CCN(c2c(NC(=O)c3nc(-c4ccnc(N)c4)c[nH]3)ccc(F)c2F)CC1 [Compound 28, N-[2-[4-(aminomethyl)-1-piperidinyl]-3,4-difluorophenyl]-4-(2-amino-4-pyridinyl)-1H-imidazole-2-carboxamide]"
10,1 to 50,"Cc1cc(-c2c[nH]c(C(=O)Nc3cccc(F)c3N3CCC[C@@H](N)C3)n2)nc(N)n1 [Compound 29, 4-(2-amino-6-methyl-4-pyrimidinyl)-N-[2-(3(R)-amino-1-piperidinyl)-3-fluorophenyl]-1H-imidazole-2-carboxamide]"
11,1 to 50,"CCc1cc(-c2c[nH]c(C(=O)Nc3cccc(F)c3N3CCC(CN)CC3)n2)ccn1 [Compound 30, N-[2-[4-(aminomethyl)-1-piperidinyl]-3-fluorophenyl]-4-(2-ethyl-4-pyridinyl)-1H-imidazole-2-carboxamide]"
12,51 to 250,"NCC1CCN(c2c(F)cccc2NC(=O)c2nc(-c3cccc(S(N)(=O)=O)c3)c[nH]2)CC1 [Compound 31, N-[2-[4-(aminomethyl)-1-piperidinyl]-3-fluorophenyl]-4-[3-(aminosulfonyl)phenyl]-1H-imidazole-2-carboxamide]"
13,1 to 50,"CNc1cc(-c2c[nH]c(C(=O)Nc3cccc(F)c3N3CCC(CN)CC3)n2)ccn1 [Compound 32, N-[2-[4-(aminomethyl)-1-piperidinyl]-3-fluorophenyl]-4-[2-(methylamino)-4-pyridinyl]-1H-imidazole-2-carboxamide]"
14,51 to 250,"CC(=O)Nc1cc(-c2c[nH]c(C(=O)Nc3cccc(F)c3N3CCC(CN)CC3)n2)ccn1 [Compound 33, 4-[2-(acetylamino)-4-pyridinyl]-N-[2-[4-(aminomethyl)-1-piperidinyl]-3-fluorophenyl]-1H-imidazole-2-carboxamide]"
15,1 to 50,"NCC1CCN(c2c(F)cccc2NC(=O)c2nc(-c3ccnc(NCc4ccccc4)c3)c[nH]2)CC1 [Compound 35, N-[2-[4-(aminomethyl)-1-piperidinyl]-3-fluorophenyl]-4-[2-[(phenylmethyl)amino]-4-pyridinyl]-1H-imidazole-2-carboxamide]"
16,1 to 50,"Cc1cc(-c2c[nH]c(C(=O)Nc3cccc(F)c3N3CCC(CN)CC3)n2)nc(N)n1 [Compound 47, N-[2-[4-(aminomethyl)-1-piperidinyl]-3-fluorophenyl]-4-(2-amino-6-methyl-4-pyrimidinyl)-1H-imidazole-2-carboxamide]"
